Test results as given in ChEMBL document CHEMBL1201862, “PubChem BioAssay data set” (2004).
Active and inactive are the calls of the source.

How the values were obtained:
[1] = biological target: T1, Trace amine-associated receptor 1 (Homo sapiens, UniProt Q96RJ0); test: Counterscreen for agonists of the human trace amine associated receptor 1 (hTAAR1): Fluorescence-based cell-based high throughput dose response assay to identify hTAAR1 agonist that also desensitize TAAR1 receptor response.; assay type: functional
T1 sequence (Q96RJ0 whole entry): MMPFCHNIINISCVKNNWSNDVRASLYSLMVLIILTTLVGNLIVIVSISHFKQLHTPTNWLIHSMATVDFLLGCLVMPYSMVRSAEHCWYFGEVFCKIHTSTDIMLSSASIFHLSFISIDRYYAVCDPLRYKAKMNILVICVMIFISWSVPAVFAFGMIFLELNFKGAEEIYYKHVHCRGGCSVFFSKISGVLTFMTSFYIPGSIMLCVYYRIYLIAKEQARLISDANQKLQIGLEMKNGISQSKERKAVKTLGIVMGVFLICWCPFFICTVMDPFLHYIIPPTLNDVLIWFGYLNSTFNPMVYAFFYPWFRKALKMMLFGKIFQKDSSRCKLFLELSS

[2] = cells; assay type: functional, cell-based
[3] = biological target: T1, Trace amine-associated receptor 1; test: Fluorescence-based cell-based high throughput dose response assay to identify agonists of the human trace amine associated receptor 1 (TAAR1).; assay type: functional
[4] = cells; assay type: functional, cell-based; remark: listed apart in the source
[5] = OVCAR-3 cell viability loss – plate reader, dry powder samples, PAX8 inhibitor project, dose response (AID 743044); assay type: functional, cell-based
[6] = biological target: Paired box protein Pax-8 (Homo sapiens, UniProt Q06710); test: PAX8 transcriptional activity inhibition in RMG-I – RMG-I cells, luciferase, cherry-pick, dose response (AID 687027); assay type: functional, cell-based;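 also: luciferase reporter driven by Pax8 target thyroperoxidase promoter measured by SteadyGlo luminescence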
[7] = IGROV1 cell killing – plate reader, dry powder samples, PAX8 inhibitor project, dose response (AID 743043); assay type: functional, cell-based; details: IGROV-1
[8] = intracellular Trypanosoma cruzi inhibitors in host cells – cell-based, plate reader, cherry-pick samples, set 3, dose response (AID 651818); assay type: functional;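 also: compounds incubated with infected cells for about four days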
[9] = HIV-1 Vif–A3G interaction blockers – biochemical, TR-FRET, GST-Vif 1-94, biotin-A3G peptide, dose response retest, primary screen (AID 1117319); assay type: functional;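 also: TR-FRET signal of purified GST-Vif binding a biotinylated A3G peptide; inhibitors lower the FRET signal by blocking Vif and A3G binding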
[10] = biological target: Protein-tyrosine kinase 2-beta (Homo sapiens, UniProt Q14289);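 also: potency of inhibitors of PYK2 kinase phosphorylation of poly-GT substrate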
[11] = activation of miR-122 Renilla sensor silencing – cell-based, Huh7 psiCHECK-miR122, Renilla luciferase, cherry-picked, dose response (AID 651956); assay type: functional;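 also: huh7 hepatoma cells stably carrying a psiCHECK-2 miR-122 sensor plasmid; renilla luciferase signal reporting endogenous miR-122 activity after 48 h compound exposure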
[12] = biological target: T2, DNA repair and recombination protein RAD54-like (Homo sapiens, UniProt Q92698); test: RAD54 Holliday junction migration blockers – biochemical, fluorescence, cherry-picked samples, dose series, confirmation (AID 651657); assay type: functional
T2 sequence (Q92698 whole entry): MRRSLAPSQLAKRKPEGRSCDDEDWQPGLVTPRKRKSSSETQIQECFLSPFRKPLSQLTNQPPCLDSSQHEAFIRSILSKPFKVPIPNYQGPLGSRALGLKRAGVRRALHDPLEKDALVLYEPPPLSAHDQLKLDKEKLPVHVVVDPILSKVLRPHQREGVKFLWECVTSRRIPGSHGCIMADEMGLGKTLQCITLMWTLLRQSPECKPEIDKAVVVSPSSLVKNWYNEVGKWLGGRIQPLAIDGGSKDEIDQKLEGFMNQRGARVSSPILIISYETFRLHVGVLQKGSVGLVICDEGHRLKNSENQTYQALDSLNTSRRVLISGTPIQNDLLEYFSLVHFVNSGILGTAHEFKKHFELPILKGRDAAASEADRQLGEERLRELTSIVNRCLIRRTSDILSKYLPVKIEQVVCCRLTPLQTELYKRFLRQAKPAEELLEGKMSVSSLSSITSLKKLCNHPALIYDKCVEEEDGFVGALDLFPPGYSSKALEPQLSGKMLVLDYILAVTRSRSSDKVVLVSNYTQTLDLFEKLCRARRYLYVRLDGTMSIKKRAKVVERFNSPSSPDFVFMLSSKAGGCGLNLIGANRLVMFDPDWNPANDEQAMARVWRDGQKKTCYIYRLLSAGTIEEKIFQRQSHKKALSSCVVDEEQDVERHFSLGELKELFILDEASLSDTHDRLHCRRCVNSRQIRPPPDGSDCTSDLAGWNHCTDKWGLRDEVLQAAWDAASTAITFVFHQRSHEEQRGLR

[13] = biological target: T3, Voltage-gated N-type calcium channel alpha-1B subunit/Amyloid beta A4 precursor protein-binding family A member 1 (Homo sapiens, UniProt Q00975+Q02410); assay type: protein assay
[14] = biological target: Induced myeloid leukemia cell differentiation protein Mcl-1 (Homo sapiens, UniProt Q07820); assay type: functional
[15] = biological target: T3, Voltage-gated N-type calcium channel alpha-1B subunit/Amyloid beta A4 precursor protein-binding family A member 1; assay type: protein assay; remark: listed apart in the source
[16] = fluconazole-exposed Candida albicans growth modulators – fluorescence, retest, confirmation (AID 2467); assay type: functional, cell-based
[17] = biological target: T4, Adenosylmethionine-8-amino-7-oxononanoate aminotransferase (Mycobacterium tuberculosis, UniProt P9WQ81); test: Mycobacterium tuberculosis BioA enzyme inhibitor Measured in Biochemical System Using Plate Reader - 2163-02_Inhibitor_Dose_CherryPick_Activity.; assay type: functional, Mycobacterium tuberculosis UT205
T4 sequence (P9WQ81 whole entry): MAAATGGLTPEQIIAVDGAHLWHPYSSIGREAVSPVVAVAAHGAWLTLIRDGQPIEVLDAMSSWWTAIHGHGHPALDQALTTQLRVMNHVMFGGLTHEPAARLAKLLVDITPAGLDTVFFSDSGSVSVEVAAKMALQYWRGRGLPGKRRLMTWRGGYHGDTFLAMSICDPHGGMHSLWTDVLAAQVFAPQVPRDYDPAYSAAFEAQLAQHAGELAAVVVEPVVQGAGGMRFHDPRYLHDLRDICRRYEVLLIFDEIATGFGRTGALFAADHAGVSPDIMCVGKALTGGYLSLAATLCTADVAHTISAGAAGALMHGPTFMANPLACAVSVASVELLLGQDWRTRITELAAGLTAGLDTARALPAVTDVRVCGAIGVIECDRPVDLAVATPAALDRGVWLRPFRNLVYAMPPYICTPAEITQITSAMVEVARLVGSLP

[18] = NIH-3T3 fibroblast cytotoxicity, dose response, cytotoxicity control, cell-based, fluorescence, Alamar Blue, secondary assay (AID 2327); assay type: functional;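 also: NIH-3T3 mouse fibroblasts cultured with fluconazole at 8 µg/mL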
[19] = biological target: T5, Fatty acid synthase (Homo sapiens, UniProt P49327); test: inhibition of human FAS-TE enzyme activity – biochemical, kinetic fluorescence intensity, dose response (AID 624326); assay type: functional;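 also: rate of fluorescence rise from hydrolysis of a fluorogenic O-methyl fluorescein ester substrate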
[20] = biological target: T5, Fatty acid synthase; test: inhibition of human FAS-TE enzyme activity – biochemical, endpoint fluorescence intensity, uHTS hits, dose response (AID 624327); assay type: functional;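 also: fluorescence from hydrolysis of an O-methyl fluorescein acyl ester substrate by the enzyme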
[21] = biological target: Peroxisome proliferator-activated receptor gamma/Nuclear receptor coactivator 1 (Homo sapiens, UniProt P37231); assay type: functional;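 also: agonist potency as compounds enhance coactivator SRC-1 recruitment to PPARgamma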
[22] = biological target: Peroxisome proliferator-activated receptor gamma/Nuclear receptor coactivator 2 (Homo sapiens, UniProt P37231); assay type: functional;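 also: agonist potency for raising coactivator recruitment to the receptor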
[23] = biological target: Peroxisome proliferator-activated receptor gamma/Nuclear receptor coactivator 3 (Homo sapiens, UniProt P37231); assay type: functional;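 also: agonist potency for raising coactivator recruitment to the receptor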
[24] = biological target: T6, Long-chain-fatty-acid--AMP ligase FadD28 (Mycobacterium tuberculosis, UniProt P9WQ59); test: Fluorescence polarization aasay to screen for inhibitors that compete for the binding of FadD28 to a bisubstrate Measured in Biochemical System Using Plate Reader - 2147-01_Inhibitor_Dose_CherryPick_Activity.; assay type: functional, Mycobacterium tuberculosis H37Rv
T6 sequence (P9WQ59 whole entry): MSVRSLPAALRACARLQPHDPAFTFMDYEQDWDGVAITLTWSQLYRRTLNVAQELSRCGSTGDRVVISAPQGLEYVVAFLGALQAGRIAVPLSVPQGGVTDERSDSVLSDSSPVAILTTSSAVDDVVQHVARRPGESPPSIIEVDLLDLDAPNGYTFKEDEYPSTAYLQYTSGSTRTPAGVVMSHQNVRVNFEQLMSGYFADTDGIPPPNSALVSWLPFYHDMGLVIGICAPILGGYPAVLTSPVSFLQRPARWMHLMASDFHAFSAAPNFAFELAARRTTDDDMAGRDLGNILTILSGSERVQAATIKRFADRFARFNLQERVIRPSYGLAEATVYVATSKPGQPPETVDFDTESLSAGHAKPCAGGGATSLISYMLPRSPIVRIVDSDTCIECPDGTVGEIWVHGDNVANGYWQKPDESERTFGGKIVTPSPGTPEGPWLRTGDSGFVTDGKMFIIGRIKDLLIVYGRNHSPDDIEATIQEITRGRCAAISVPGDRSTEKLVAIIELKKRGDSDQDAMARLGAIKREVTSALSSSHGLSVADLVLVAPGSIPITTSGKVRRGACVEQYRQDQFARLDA

[25] = biological target: Voltage-dependent T-type calcium channel subunit alpha-1H (Homo sapiens, UniProt O95180); assay type: functional;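 also: channel activity triggered by adding a high calcium stimulation buffer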
[26] = OVCAR8 cell viability loss – plate reader, dry powder samples, PAX8 project, dose response (AID 743197); assay type: functional, cell-based; details: OVCAR-8

Sequence of Protein-tyrosine kinase 2-beta (Q14289 whole entry): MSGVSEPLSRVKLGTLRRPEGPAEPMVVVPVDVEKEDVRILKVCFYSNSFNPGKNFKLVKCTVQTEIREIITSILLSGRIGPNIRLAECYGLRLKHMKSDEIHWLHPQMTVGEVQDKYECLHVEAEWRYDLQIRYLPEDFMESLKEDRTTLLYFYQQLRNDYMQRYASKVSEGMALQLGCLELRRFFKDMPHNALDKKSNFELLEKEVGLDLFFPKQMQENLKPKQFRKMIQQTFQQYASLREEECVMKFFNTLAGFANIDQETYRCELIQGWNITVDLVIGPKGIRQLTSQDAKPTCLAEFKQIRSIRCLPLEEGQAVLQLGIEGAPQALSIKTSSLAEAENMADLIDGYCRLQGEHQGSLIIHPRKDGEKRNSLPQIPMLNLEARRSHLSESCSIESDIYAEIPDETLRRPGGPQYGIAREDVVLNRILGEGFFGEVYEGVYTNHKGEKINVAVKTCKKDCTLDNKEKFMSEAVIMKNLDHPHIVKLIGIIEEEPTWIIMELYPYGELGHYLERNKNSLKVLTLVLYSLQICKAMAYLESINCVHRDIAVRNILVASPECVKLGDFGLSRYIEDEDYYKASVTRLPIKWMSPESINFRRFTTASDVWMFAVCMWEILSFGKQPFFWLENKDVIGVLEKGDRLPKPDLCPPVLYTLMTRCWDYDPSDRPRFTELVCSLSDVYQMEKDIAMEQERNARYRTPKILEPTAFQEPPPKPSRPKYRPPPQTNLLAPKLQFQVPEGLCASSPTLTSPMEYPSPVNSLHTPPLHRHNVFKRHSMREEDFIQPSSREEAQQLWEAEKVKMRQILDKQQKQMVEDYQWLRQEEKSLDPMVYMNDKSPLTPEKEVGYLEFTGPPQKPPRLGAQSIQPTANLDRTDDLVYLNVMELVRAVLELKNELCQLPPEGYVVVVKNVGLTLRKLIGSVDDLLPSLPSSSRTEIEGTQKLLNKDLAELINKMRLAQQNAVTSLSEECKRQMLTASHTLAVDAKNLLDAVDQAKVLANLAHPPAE
T5 sequence (P49327 whole entry): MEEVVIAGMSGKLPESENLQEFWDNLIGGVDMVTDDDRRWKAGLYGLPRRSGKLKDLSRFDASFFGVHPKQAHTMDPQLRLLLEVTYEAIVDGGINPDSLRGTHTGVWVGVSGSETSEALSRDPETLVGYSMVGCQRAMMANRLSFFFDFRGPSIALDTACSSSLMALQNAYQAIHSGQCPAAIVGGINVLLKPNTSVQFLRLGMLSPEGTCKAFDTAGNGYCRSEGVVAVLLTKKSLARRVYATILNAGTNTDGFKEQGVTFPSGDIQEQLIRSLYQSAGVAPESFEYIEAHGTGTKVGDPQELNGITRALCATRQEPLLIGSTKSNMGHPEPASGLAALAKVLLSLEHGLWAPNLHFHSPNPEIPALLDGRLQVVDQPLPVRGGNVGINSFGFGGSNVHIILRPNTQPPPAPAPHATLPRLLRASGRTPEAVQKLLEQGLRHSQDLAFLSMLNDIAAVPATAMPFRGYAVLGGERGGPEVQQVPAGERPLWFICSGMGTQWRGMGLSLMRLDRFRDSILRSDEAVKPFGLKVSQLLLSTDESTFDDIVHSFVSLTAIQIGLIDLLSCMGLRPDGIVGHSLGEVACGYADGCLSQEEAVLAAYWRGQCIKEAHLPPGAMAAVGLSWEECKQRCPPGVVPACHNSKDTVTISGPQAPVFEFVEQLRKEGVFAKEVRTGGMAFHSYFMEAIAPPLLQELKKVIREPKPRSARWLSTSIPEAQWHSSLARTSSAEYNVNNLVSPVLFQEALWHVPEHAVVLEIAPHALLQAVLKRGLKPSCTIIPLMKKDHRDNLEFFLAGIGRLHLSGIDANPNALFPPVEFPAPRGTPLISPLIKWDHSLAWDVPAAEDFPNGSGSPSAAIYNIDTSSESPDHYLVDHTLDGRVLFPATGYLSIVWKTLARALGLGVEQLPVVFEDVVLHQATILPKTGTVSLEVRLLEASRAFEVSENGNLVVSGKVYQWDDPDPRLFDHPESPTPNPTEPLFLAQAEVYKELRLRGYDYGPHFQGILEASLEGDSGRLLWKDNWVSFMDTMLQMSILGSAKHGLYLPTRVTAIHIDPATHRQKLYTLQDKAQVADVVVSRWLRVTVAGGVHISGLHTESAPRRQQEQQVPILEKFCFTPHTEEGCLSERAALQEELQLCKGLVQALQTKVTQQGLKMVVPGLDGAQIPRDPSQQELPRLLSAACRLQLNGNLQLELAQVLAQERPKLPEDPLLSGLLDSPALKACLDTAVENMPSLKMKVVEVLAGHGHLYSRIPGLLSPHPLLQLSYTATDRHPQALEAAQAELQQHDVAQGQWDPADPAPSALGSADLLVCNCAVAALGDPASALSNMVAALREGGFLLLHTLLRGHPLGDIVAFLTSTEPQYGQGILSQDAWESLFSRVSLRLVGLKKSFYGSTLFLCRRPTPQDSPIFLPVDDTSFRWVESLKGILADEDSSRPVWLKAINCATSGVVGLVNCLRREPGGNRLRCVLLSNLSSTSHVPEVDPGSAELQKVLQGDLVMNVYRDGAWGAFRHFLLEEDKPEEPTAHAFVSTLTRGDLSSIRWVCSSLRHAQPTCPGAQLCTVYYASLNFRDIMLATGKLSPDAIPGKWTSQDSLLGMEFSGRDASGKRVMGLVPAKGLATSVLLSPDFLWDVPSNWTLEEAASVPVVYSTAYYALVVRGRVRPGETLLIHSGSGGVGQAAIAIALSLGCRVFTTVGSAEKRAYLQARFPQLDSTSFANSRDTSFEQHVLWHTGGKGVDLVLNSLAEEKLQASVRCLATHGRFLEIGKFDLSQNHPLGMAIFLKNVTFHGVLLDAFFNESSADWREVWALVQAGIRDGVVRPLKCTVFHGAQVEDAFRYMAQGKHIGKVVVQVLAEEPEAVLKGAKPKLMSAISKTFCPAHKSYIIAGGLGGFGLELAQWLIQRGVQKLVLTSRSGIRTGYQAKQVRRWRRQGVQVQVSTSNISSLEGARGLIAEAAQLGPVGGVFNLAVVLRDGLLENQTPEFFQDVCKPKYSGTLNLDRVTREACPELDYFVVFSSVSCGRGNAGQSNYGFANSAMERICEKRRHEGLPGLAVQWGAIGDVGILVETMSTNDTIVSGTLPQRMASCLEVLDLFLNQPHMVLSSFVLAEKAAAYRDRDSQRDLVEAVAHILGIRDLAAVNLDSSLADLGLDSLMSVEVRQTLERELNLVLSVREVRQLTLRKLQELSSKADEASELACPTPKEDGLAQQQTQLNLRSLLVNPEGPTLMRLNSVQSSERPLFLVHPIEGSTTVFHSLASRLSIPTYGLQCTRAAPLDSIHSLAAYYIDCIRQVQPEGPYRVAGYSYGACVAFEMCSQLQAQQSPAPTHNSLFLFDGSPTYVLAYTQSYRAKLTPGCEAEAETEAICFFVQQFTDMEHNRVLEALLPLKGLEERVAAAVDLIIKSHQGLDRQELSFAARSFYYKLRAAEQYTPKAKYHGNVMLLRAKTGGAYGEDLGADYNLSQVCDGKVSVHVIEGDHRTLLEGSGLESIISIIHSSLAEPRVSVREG
Sequence of Paired box protein Pax-8 (Q06710 whole entry): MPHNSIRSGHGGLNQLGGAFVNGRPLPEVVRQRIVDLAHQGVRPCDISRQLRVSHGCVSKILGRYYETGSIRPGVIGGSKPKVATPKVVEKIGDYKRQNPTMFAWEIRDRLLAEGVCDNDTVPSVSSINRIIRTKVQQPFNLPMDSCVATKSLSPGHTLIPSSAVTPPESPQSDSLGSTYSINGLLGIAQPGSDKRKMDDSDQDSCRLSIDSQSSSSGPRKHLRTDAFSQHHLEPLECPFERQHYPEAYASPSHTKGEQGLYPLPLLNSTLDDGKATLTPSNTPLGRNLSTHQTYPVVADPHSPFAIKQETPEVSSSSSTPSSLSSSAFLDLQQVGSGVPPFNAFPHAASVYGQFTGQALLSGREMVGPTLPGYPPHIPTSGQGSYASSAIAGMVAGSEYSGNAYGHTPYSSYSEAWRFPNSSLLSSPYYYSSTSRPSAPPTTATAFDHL
Sequence of Induced myeloid leukemia cell differentiation protein Mcl-1 (Q07820 whole entry): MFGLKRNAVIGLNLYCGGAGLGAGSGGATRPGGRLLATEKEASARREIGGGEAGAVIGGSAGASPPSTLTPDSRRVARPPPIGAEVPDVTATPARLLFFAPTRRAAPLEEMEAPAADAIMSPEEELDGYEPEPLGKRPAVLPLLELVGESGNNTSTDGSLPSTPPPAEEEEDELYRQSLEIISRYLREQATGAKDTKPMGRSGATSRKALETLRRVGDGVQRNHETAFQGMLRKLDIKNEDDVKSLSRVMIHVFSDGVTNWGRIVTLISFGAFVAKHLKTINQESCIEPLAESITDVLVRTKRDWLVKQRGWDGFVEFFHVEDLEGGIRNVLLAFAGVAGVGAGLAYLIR

## CN(CCc1ccccc1)C(C(=O)c1ccc2c(c1)OCO2)c1nnnn1-c1ccccc1NC(=O)OC(C)(C)C (configuration not stated)
[1]
  IC50: 3.26 µM (active)
[2]
  IC50: > 29.9 µM (inactive)
[3]
  EC50: 0.881 µM (active)
[4]
  EC50: > 29.9 µM (inactive)

## Cc1oc(-c2ccccc2Cl)nc1CS(=O)(=O)CC(=O)NCCc1ccccc1
[1]
  IC50: 8.19 µM (active)
[2]
  IC50: 18.3 µM (inactive)
[3]
  EC50: 2.9 µM (active)
[4]
  EC50: > 29.9 µM (inactive)

## C[C@@H]1CN([C@@H](C)CO)C(=O)Cc2cc(NC(=O)CCC(F)(F)F)ccc2O[C@H]1CN(C)Cc1ccc(Oc2ccccc2)cc1
[5]
  AC50: 26.4 µM (active)
[6]
  AC50: 10.6 µM (active)
[7]
  AC50: 41.7 µM (active)

## C[C@@H]1CN([C@H](C)CO)C(=O)c2cccc(NS(=O)(=O)c3ccc(Cl)cc3)c2O[C@@H]1CN(C)Cc1ccc(C(=O)Nc2ccccc2N)cc1
[8]
  AC50: 9.17 µM (active)

## O=C(Nc1ccc2c(c1)OCCO2)C1CCC1
[9]
  IC50: > 100 µM (active)

## Cc1ccc2nsnc2c1S(=O)(=O)Nc1cccc2nsnc12
[10]
  IC50: 6.7 µM (active)

## C[C@@H]1CN([C@H](C)CO)S(=O)(=O)c2ccc(C#CC3CC3)cc2O[C@@H]1CN(C)C(=O)c1cccc(F)c1
[11]
  AC50: 22.3 µM (active)

## COc1ccc2nc(C)cc(Nc3ccc(C)cc3)c2c1
[12]
  AC50: 19.4 µM (active)

## C[C@H](CO)N1C[C@H](C)[C@H](CN(C)S(=O)(=O)c2ccc(F)cc2)Oc2c(NC(=O)CCCCCC(=O)Nc3ccccc3N)cccc2C1=O
[8]
  AC50: 2.58 µM (active)

## CCC1=NNc2cccc3c(OC)ccc1c23
[13]
  IC50: 0.586 µM (active)
[14]
  IC50: 8.79 µM (not active)
[10]
  IC50: 2.15 µM (active)
[15]
  IC50: 0.521 µM (active)

## COCC(=O)N(C)C[C@H]1Oc2cc(C#Cc3cccnc3)ccc2S(=O)(=O)N([C@H](C)CO)C[C@H]1C
[11]
  AC50: 3.31 µM (active)

## CCOC(=O)CNC(=O)c1sc2ncnc(N3CCc4ccccc4C3)c2c1C
[16]
  EC50: 3.42 µM (active)
[10]
  IC50: 41.7 µM (not active)
[17]
  AC50: 4.06 µM (active)
[18]
  EC50: > 150 µM (inactive)

## O=C(O)c1cccc(NCc2ccncc2)c1
[9]
  IC50: > 100 µM (active)

## Nc1sc2c(c1C(=O)NCCc1ccccc1)CCC2
[1]
  IC50: 9.93 µM (active)
[2]
  IC50: > 29.9 µM (inactive)
[3]
  EC50: 3.36 µM (active)
[4]
  EC50: > 29.9 µM (inactive)

## O=C(Nc1ccc(Cc2ccncc2)cc1)c1cc([N+](=O)[O-])ccc1N1CCOCC1
[19]
  IC50: 1.24 µM (active)
[20]
  IC50: 1.53 µM (active)

## CC(C)CCNC(=O)NC(=O)COC(=O)/C=C/c1cnc2ccccc2n1
[21]
  EC50: 49.5 µM (not active)
[22]
  EC50: 32 µM (not active)
[23]
  EC50: 35.9 µM (not active)

## CN1c2ccc(-c3ccccc3)cc2[C@H]2[C@H](CCN2C(=O)c2ccccc2F)[C@H]1CO
[17]
  AC50: 0.183 µM (active)

## Cc1nnc(NC(=O)CSc2nc(C(C)C)nc3sc(C)c(C)c23)s1
[11]
  AC50: 34.8 µM (active)

## CCn1cc(C(=O)NCCC2=CCCCC2)c(=O)c2cc(S(=O)(=O)N(C)C)ccc21
[19]
  IC50: 2.74 µM (active)
[20]
  IC50: 4.69 µM (active)

## CC(=O)c1ccc(N2CCN(S(=O)(=O)c3c(C(=O)N4CCCC4)c(C)n(C)c3C)CC2)cc1
[17]
  AC50: 11.6 µM (active)

## Clc1cccc2c3c([nH]c12)CCNC3
[1]
  IC50: 22.1 µM (inactive)
[2]
  IC50: > 29.9 µM (inactive)
[3]
  EC50: 1.36 µM (active)
[4]
  EC50: > 29.9 µM (inactive)

## CC(C)(C)N(Cc1ccccc1)C(=O)COC(=O)c1ccc([N+](=O)[O-])o1
[19]
  IC50: 12.2 µM (active)
[20]
  IC50: 16.2 µM (active)

## CCOc1cc2[nH]c(=S)n(Cc3ccc(C(=O)NCCCN(CC)CC)cc3)c(=O)c2cc1OCC
[12]
  AC50: 40.1 µM (active)

## C[C@H]1CN([C@@H](C)CO)C(=O)Cc2cc(NC(=O)Nc3ccc(C(F)(F)F)cc3)ccc2O[C@H]1CN(C)Cc1ccc(Cl)c(Cl)c1
[8]
  AC50: 2.92 µM (active)

## C[C@@H]1CN([C@@H](C)CO)C(=O)c2cc(N(C)C)ccc2O[C@@H]1CN(C)Cc1ccc(C(=O)Nc2ccccc2N)cc1
[8]
  AC50: 3.57 µM (active)

## COc1ccc(C(=O)NCc2ccc(Cl)cc2)cc1S(=O)(=O)N1CCCC1
[24]
  AC50: 4.67 µM (active)

## CCCCn1nnc(NC(=O)c2ccc(-c3cccc(Cl)c3)o2)n1
[25]
  EC50: 4.23 µM (active)
[9]
  IC50: > 100 µM (active)

## O=C1CN(S(=O)(=O)Cc2ccccc2)C[C@@H]2[C@@H](c3ccc(C#CC4CC4)cc3)[C@@H](CO)N12
[5]
  AC50: 5.98 µM (active)
[26]
  AC50: 53.1 µM (active)
[6]
  AC50: 4.66 µM (active)
[7]
  AC50: 61 µM (active)
